pIC50: −log10 of the molar value. Active and inactive are the calls of the source. The rule behind the calls is not given here.
How the values were obtained:
[1] = biological target: T1, Aurora kinase A (Homo sapiens) (UniProt O14965); assay: Inhibition of Aurora kinase A assessed as inhibition of substrate phosphorylation using fluorescent peptide substrate up to 100 uM by microplate reader assay
T1 sequence (whole entry): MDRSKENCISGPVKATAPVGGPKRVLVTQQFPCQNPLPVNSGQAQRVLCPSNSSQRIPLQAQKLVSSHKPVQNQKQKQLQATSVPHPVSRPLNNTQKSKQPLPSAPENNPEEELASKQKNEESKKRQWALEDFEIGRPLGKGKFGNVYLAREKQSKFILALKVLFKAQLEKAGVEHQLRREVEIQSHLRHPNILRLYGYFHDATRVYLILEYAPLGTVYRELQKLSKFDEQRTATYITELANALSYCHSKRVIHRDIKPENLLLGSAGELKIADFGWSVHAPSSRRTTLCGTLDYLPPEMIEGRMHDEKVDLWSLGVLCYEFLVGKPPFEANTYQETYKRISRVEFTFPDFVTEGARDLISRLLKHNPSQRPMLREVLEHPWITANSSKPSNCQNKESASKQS

[2] = biological target: Serine/threonine-protein kinase Chk2 (Homo sapiens, UniProt O96017)
Description: Inhibition of CHK2 assessed as inhibition of substrate phosphorylation using fluorescent peptide substrate by microplate reader assay

[3] = biological target: Ribosomal protein S6 kinase alpha-3 (Homo sapiens, UniProt P51812)
Description: Inhibition of RSK2 assessed as inhibition of substrate phosphorylation using fluorescent peptide substrate by microplate reader assay

[4] = biological target: T2, Serine/threonine-protein kinase Chk1 (Homo sapiens, UniProt O14757)
T2 sequence (O14757 whole entry): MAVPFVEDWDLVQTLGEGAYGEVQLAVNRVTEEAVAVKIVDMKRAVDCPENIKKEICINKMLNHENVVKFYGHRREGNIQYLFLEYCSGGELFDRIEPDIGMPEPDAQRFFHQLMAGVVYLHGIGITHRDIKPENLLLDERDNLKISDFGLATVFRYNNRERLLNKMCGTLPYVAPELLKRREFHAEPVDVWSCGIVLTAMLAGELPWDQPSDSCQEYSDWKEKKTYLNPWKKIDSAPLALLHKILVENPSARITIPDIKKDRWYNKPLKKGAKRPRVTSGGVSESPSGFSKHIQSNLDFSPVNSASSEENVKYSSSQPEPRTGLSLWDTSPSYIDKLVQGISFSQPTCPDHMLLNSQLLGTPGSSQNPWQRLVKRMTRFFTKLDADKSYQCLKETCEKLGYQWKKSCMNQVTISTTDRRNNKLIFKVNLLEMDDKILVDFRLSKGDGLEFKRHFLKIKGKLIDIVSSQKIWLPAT
Description: Inhibition of CHK1 assessed as inhibition of substrate phosphorylation using fluorescent peptide substrate by microplate reader assay

Chain of Ribosomal protein S6 kinase alpha-3 (P51812 whole entry): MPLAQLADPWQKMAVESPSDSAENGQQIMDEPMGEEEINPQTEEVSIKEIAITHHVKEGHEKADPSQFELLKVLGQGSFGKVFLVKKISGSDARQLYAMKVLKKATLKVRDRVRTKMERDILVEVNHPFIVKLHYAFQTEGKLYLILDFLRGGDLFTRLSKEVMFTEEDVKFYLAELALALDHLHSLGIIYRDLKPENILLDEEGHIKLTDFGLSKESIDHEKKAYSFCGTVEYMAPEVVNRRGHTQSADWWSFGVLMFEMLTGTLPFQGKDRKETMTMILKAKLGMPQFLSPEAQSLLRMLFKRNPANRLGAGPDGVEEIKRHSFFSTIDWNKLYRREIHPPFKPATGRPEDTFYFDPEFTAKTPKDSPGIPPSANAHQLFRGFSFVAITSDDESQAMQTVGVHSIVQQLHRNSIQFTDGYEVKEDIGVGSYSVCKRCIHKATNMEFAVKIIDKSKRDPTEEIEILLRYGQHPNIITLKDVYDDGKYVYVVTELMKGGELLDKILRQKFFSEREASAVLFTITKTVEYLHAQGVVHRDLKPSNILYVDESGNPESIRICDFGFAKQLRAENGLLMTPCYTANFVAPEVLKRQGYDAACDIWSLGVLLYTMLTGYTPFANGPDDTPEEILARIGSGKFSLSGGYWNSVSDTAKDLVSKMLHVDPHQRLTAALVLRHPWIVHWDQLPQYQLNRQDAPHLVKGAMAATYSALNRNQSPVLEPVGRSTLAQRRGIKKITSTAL
Chain of Serine/threonine-protein kinase Chk2 (O96017 whole entry): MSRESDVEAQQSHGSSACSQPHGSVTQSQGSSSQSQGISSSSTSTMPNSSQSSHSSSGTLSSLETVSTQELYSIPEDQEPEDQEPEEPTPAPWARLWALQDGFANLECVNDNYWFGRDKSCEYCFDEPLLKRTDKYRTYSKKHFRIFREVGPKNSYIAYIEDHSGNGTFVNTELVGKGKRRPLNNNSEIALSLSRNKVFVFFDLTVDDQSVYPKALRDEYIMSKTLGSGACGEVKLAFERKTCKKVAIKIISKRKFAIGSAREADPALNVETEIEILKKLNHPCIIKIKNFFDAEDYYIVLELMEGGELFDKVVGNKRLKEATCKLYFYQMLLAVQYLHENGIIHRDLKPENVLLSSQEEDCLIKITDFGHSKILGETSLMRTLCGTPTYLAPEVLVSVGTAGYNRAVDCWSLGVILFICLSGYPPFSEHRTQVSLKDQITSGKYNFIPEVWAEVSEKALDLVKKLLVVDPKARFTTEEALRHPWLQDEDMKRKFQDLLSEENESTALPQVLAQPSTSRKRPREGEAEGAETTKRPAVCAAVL

With `Fc1ccc(-c2cn3ccsc3n2)cc1F` the inhibition [1] was “inactive”.

`N#Cc1ccc(-c2cn3cc(Cl)sc3n2)cc1` was tested, and the inhibition [1] was “inactive”.

`COc1cc([N+](=O)[O-])c(OC)cc1-c1nc2sc(C)nn2c1/C=N\NC(=N)N` was tested, and the pIC50 [2] was under 4.70, the pIC50 [3] was under 4.00 and the inhibition [1] was “inactive”.

`O=Cc1c(-c2ccc([N+](=O)[O-])cc2)nc2sc(Br)cn12` was tested, and the inhibition [1] was “inactive”.

With `N=C(N)N/N=C/c1c(-c2ccc(Cl)c([N+](=O)[O-])c2)nc2sc3ccccc3n12` the pIC50 [2] was under 4.00, the pIC50 [3] was 5.14 and the pIC50 [4] was under 4.00.

`O=Cc1c(-c2cc(F)c(F)cc2F)nc2sccn12` was tested, and the inhibition [1] was “inactive”.

In the case of `O=Cc1c(-c2ccc(Br)c([N+](=O)[O-])c2)nc2sccn12`, the inhibition [1] was “inactive”.

With `O=[N+]([O-])c1cc(-c2cn3cc(Cl)sc3n2)ccc1F` the inhibition [1] was “inactive”.

`N=C(N)N/N=C\c1c(-c2ccccc2)nc2sc(N)nn12` was tested, and the inhibition [1] was “inactive”.

In the case of `O=[N+]([O-])c1cc(-c2cn3ccsc3n2)ccc1F`, the inhibition [1] was “inactive”.

With `Clc1cc(-c2nc3sc(Cl)cn3c2/C=N/NC2=NCCN2)c(Cl)s1` the pIC50 [2] was under 4.70, the pIC50 [3] was under 4.00 and the inhibition [1] was “inactive”.

For `N#Cc1ccc(-c2nc3sc(Cl)cn3c2C=O)cc1`, the inhibition [1] was “inactive”.

`O=Cc1c(-c2ccc(F)c(F)c2)nc2sccn12` was tested, and the inhibition [1] was “inactive”.

With `O=Cc1c(-c2cccc([N+](=O)[O-])c2F)nc2sccn12` the inhibition [1] was “inactive”.

`CCCc1cn2c(/C=N/NC(=N)N)c(-c3cccc([N+](=O)[O-])c3)nc2s1` was tested, and the pIC50 [2] was 4.16, the pIC50 [3] was 4.88 and the pIC50 [4] was under 4.00.

`Cc1csc2nc(-c3ccc(Cl)c([N+](=O)[O-])c3)c(/C=N/NC(=N)N)n12` gave a pIC50 [2] of 4.07, a pIC50 [3] of 4.35 and a pIC50 [4] of under 4.00.

`COc1cc([N+](=O)[O-])c(OC)cc1-c1nc2sccn2c1/C=N/NC(=N)N` showed a pIC50 [2] of 4.02, a pIC50 [3] of 5.45 and a pIC50 [4] of under 4.00.

For `Cc1nn2c(C=O)c(-c3cc(Cl)sc3Cl)nc2s1`, the inhibition [1] was “inactive”.

In the case of `Cc1cn2c(/C=N/NC(=N)N)c(-c3cc(Cl)sc3Cl)nc2s1`, the pIC50 [2] was under 4.00, the pIC50 [3] was 4.58 and the pIC50 [4] was under 4.00.

In the case of `N=C(N)N/N=C\c1c(-c2c(F)cccc2F)nc2sccn12`, the pIC50 [2] was under 4.00, the pIC50 [3] was under 4.00 and the inhibition [1] was “inactive”.

With `N=C(N)N/N=C\c1c(-c2ccc(F)c(F)c2)nc2sccn12` the pIC50 [2] was under 4.00, the pIC50 [3] was under 4.00 and the inhibition [1] was “inactive”.

With `O=Cc1c(-c2ccc(F)c([N+](=O)[O-])c2)nc2sccn12` the inhibition [1] was “inactive”.

For `O=Cc1c(-c2cc(Cl)sc2Cl)nc2sc(Cl)cn12`, the inhibition [1] was “inactive”.

`Cc1cn2c(/C=N/NC(=N)N)c(-c3cccc([N+](=O)[O-])c3)nc2s1` showed a pIC50 [2] of 4.23, a pIC50 [3] of 4.76 and a pIC50 [4] of under 4.00.

`O=[N+]([O-])c1cc(-c2cn3ccsc3n2)ccc1Br` was tested, and the inhibition [1] was “inactive”.

With `Cc1cn2c(/C=N/NC(=N)N)c(-c3ccc(Cl)c([N+](=O)[O-])c3)nc2s1` the pIC50 [2] was 4.19, the pIC50 [3] was 5.42 and the pIC50 [4] was under 4.00.

For `O=Cc1c(-c2ccc([N+](=O)[O-])cc2)nc2sc(F)cn12`, the inhibition [1] was “inactive”.

For `N=C(N)N/N=C/c1c(-c2ccc(N)cc2)nc2sccn12`, the pIC50 [2] was 4.17, the pIC50 [3] was 5.52 and the pIC50 [4] was under 4.00.

With `O=[N+]([O-])c1ccc(-c2cn3cc(F)sc3n2)cc1` the inhibition [1] was “inactive”.

With `COc1cc([N+](=O)[O-])c(OC)cc1-c1cn2c(n1)sc1ccccc12` the inhibition [1] was “inactive”.

With `COc1cc([N+](=O)[O-])c(OC)cc1-c1cn2ccccc2n1` the inhibition [1] was “inactive”.

In the case of `COc1cc([N+](=O)[O-])c(OC)cc1-c1nc2sc3ccccc3n2c1C=O`, the inhibition [1] was “inactive”.

`N=C(N)N/N=C/c1c(-c2ccc(Cl)cc2)nc2sc(Cl)cn12` was tested, and the pIC50 [2] was 4.31, the pIC50 [3] was 4.85 and the pIC50 [4] was under 2.10.

Work on `Cc1cn2c(/C=N/NC(=N)NN)c(-c3ccc(Cl)c([N+](=O)[O-])c3)nc2s1` yielded a pIC50 [2] of under 4.00, a pIC50 [3] of 4.74 and a pIC50 [4] of under 4.00.

In the case of `O=Cc1c(-c2cc(Cl)sc2Cl)nc2ccccn12`, the inhibition [1] was “inactive”.

With `Clc1cc(-c2cn3ccccc3n2)c(Cl)s1` the inhibition [1] was “inactive”.

`O=[N+]([O-])c1ccc(-c2cn3cc(Br)sc3n2)cc1` was tested, and the inhibition [1] was “inactive”.

`CCc1cn2c(/C=N/NC(=N)N)c(-c3cc([N+](=O)[O-])c(Cl)cc3Cl)nc2s1` was tested, and the pIC50 [2] was 4.23, the pIC50 [3] was 4.08 and the pIC50 [4] was under 4.70.

For `Cc1sc2nc(-c3cc([N+](=O)[O-])c(Cl)cc3Cl)c(/C=N/NC(=N)N)n2c1C`, the pIC50 [2] was under 4.00 and the pIC50 [3] was 4.01.

`N=C(N)N/N=C/c1c(-c2ccc([N+](=O)[O-])cc2)nc2sccn12` was tested, and the pIC50 [2] was under 4.00, the pIC50 [3] was 5.25 and the pIC50 [4] was under 4.00.

In the case of `N=C(N)N/N=C/c1c(-c2cc(Cl)sc2Cl)nc2ccccn12`, the pIC50 [2] was under 4.70, the pIC50 [3] was under 4.00 and the inhibition [1] was “inactive”.

In the case of `CCCc1cn2c(/C=N/NC(=N)N)c(-c3ccc(Cl)c([N+](=O)[O-])c3)nc2s1`, the pIC50 [2] was 4.04, the pIC50 [3] was 5.19 and the pIC50 [4] was under 4.00.

For `O=Cc1c(-c2cc(Cl)sc2Cl)nc2sc3ccccc3n12`, the inhibition [1] was “inactive”.

`Cc1nn2c(/C=N/NC(=N)N)c(-c3ccc(Cl)c([N+](=O)[O-])c3)nc2s1` showed a pIC50 [2] of 4.11 and a pIC50 [3] of 4.03.

In the case of `Cc1cn2cc(-c3ccc(F)c([N+](=O)[O-])c3)nc2s1`, the inhibition [1] was “inactive”.

With `Cc1cn2c(C=O)c(-c3ccc(F)c([N+](=O)[O-])c3)nc2s1` the inhibition [1] was “inactive”.

With `Fc1ccccc1-c1cn2ccsc2n1` the inhibition [1] was “inactive”.

With `Cc1sc2nc(-c3cccnc3)c(/C=N/NC(=N)N)n2c1C` the pIC50 [2] was 5.18, the pIC50 [3] was 4.00 and the pIC50 [4] was under 4.00.

With `O=Cc1c(-c2ccc(F)cc2)nc2sc(Cl)cn12` the inhibition [1] was “inactive”.

In the case of `N=C(N)N/N=C\c1c(-c2ccccc2F)nc2sccn12`, the pIC50 [2] was under 4.00, the pIC50 [3] was under 4.00 and the inhibition [1] was “inactive”.

`Cc1cn2c(/C=N/NC3=NCCN3)c(-c3ccc(Cl)c([N+](=O)[O-])c3)nc2s1` showed a pIC50 [2] of under 4.00, a pIC50 [3] of 4.69 and a pIC50 [4] of under 4.00.

For `N=C(N)N/N=C\c1c(-c2cc(F)c(F)cc2F)nc2sccn12`, the pIC50 [2] was under 4.00, the pIC50 [3] was under 4.00 and the inhibition [1] was “inactive”.

`Fc1cc(F)c(-c2cn3ccsc3n2)cc1F` was tested, and the inhibition [1] was “inactive”.

`Fc1ccc(-c2cn3cc(Cl)sc3n2)cc1` was tested, and the inhibition [1] was “inactive”.

In the case of `O=Cc1c(-c2ccc(F)cc2)nc2sccn12`, the inhibition [1] was “inactive”.

In the case of `Clc1cc(-c2nc3ccccn3c2/C=N/NC2=NCCN2)c(Cl)s1`, the pIC50 [2] was under 4.70, the pIC50 [3] was under 4.00 and the inhibition [1] was “inactive”.

With `COc1cc([N+](=O)[O-])c(OC)cc1-c1nc2sc(C)nn2c1C=O` the inhibition [1] was “inactive”.

In the case of `Cc1nn2cc(-c3cc(Cl)sc3Cl)nc2s1`, the inhibition [1] was “inactive”.

For `Clc1cc(-c2cn3c(n2)sc2ccccc23)c(Cl)s1`, the inhibition [1] was “inactive”.

In the case of `Clc1cc(-c2cn3cc(Cl)sc3n2)c(Cl)s1`, the inhibition [1] was “inactive”.

`Nc1nn2c(C=O)c(-c3ccccc3)nc2s1` was tested, and the inhibition [1] was “inactive”.

For `Cc1cn2cc(-c3ccc(F)cc3)nc2s1`, the inhibition [1] was “inactive”.

For `N=C(N)N/N=C\c1c(-c2cccc([N+](=O)[O-])c2F)nc2sccn12`, the pIC50 [2] was under 4.00, the pIC50 [3] was under 4.00 and the inhibition [1] was “inactive”.

For `Clc1cc(-c2nc3sc4ccccc4n3c2/C=N/NC2=NCCN2)c(Cl)s1`, the pIC50 [2] was under 4.00, the pIC50 [3] was under 4.00 and the inhibition [1] was “inactive”.

For `N=C(N)N/N=C/c1c(-c2ccccc2)nc2sc(Cl)cn12`, the pIC50 [2] was under 4.00, the pIC50 [3] was under 4.00 and the inhibition [1] was “inactive”.

For `O=Cc1c(-c2ccccc2F)nc2sccn12`, the inhibition [1] was “inactive”.

For `Cc1nn2c(/C=N/NC(=N)N)c(-c3cc(Cl)sc3Cl)nc2s1`, the pIC50 [2] was under 4.70, the pIC50 [3] was under 4.00 and the inhibition [1] was “inactive”.

For `O=Cc1c(-c2c(F)cccc2F)nc2sccn12`, the inhibition [1] was “inactive”.

With `COc1cc([N+](=O)[O-])c(OC)cc1-c1cn2nc(C)sc2n1` the inhibition [1] was “inactive”.

With `Fc1cccc(F)c1-c1cn2ccsc2n1` the inhibition [1] was “inactive”.

With `O=Cc1c(-c2ccc(F)c([N+](=O)[O-])c2)nc2sc(Cl)cn12` the inhibition [1] was “inactive”.

In the case of `O=[N+]([O-])c1cccc(-c2cn3ccsc3n2)c1F`, the inhibition [1] was “inactive”.

With `Cc1nn2c(/C=N/NC3=NCCN3)c(-c3ccc(Cl)c([N+](=O)[O-])c3)nc2s1` the pIC50 [2] was under 4.70, the pIC50 [3] was under 4.00 and the inhibition [1] was “inactive”.

For `N=C(N)N/N=C\c1c(-c2cccc(C(F)(F)F)c2)nc2sccn12`, the pIC50 [2] was under 4.00, the pIC50 [3] was under 4.00 and the inhibition [1] was “inactive”.

With `Cc1cn2c(C=O)c(-c3ccc(F)cc3)nc2s1` the inhibition [1] was “inactive”.

`COc1cc([N+](=O)[O-])c(OC)cc1-c1nc2ccccn2c1C=O` was tested, and the inhibition [1] was “inactive”.

— ChEMBL document CHEMBL1909514, “Imidazo[2,1-b]thiazole guanylhydrazones as RSK2 inhibitors” (Eur J Med Chem, 2011)
